The source made the active and inactive calls. No rule for the calls is given here.
Assays:
Cyperus serotinus [1] = test: Herbicidal activity against Cyperus serotinus assessed as phytotoxic activity ratings (0- no effect to 5-complete killing rating scale) at 100 g/a measured after 3 weeks post compound treatment under green house conditions; type: functional
Cyperus difformis [2] = test: Herbicidal activity against Cyperus difformis assessed as phytotoxic activity ratings (0- no effect to 5-complete killing rating scale) at 100 g/a measured after 3 weeks post compound treatment under green house conditions; type: functional
Oryza sativa [3] = test: Phytotoxicity against transplanted Oryza sativa (rice) seedlings assessed as phytotoxic activity ratings (0- no effect to 5-complete killing rating scale) at 100 g/a measured after 3 weeks post compound treatment under green house conditions; type: organism-based; details: in vivo, 504 h
[4] = tested on: Schoenoplectiella juncoides; test: Herbicidal activity against Schoenoplectiella juncoides var. Hotarui Ohwi assessed as phytotoxic activity ratings (0- no effect to 5-complete killing rating scale) at 50 g/a measured after 3 weeks post compound treatment under green house conditions; type: functional
Echinochloa oryzicola [5] = test: Herbicidal activity against Echinochloa oryzicola assessed as phytotoxic activity ratings (0- no effect to 5-complete killing rating scale) at 100 g/a measured after 3 weeks post compound treatment under green house conditions; type: functional
Oryza sativa [6] = test: Phytotoxicity against directly seeded Oryza sativa (rice) seedlings assessed as phytotoxic activity ratings (0- no effect to 5-complete killing rating scale) at 100 g/a measured after 3 weeks post compound treatment under green house conditions; type: organism-based; details: in vivo, 504 h
Echinochloa oryzicola [7] = test: Herbicidal activity against Echinochloa oryzicola assessed as phytotoxic activity ratings (0- no effect to 5-complete killing rating scale) at 50 g/a measured after 3 weeks post compound treatment under green house conditions; type: functional
[8] = tested on: Schoenoplectiella juncoides; test: Herbicidal activity against Schoenoplectiella juncoides var. Hotarui Ohwi assessed as phytotoxic activity ratings (0- no effect to 5-complete killing rating scale) at 3.1 g/a measured after 3 weeks post compound treatment under green house conditions; type: functional
Cyperus difformis [9] = test: Herbicidal activity against Cyperus difformis assessed as phytotoxic activity ratings (0- no effect to 5-complete killing rating scale) at 6.2 g/a measured after 3 weeks post compound treatment under green house conditions; type: functional
Cyperus serotinus [10] = test: Herbicidal activity against Cyperus serotinus assessed as phytotoxic activity ratings (0- no effect to 5-complete killing rating scale) at 3.1 to 100 g/a measured after 3 weeks post compound treatment under green house conditions; type: functional
Cyperus difformis [11] = test: Herbicidal activity against Cyperus difformis assessed as phytotoxic activity ratings (0- no effect to 5-complete killing rating scale) at 25 g/a measured after 3 weeks post compound treatment under green house conditions; type: functional
[12] = tested on: Schoenoplectiella juncoides; test: Herbicidal activity against Schoenoplectiella juncoides var. Hotarui Ohwi assessed as phytotoxic activity ratings (0- no effect to 5-complete killing rating scale) at 100 g/a measured after 3 weeks post compound treatment under green house conditions; type: functional
Cyperus serotinus [13] = test: Herbicidal activity against Cyperus serotinus assessed as phytotoxic activity ratings (0- no effect to 5-complete killing rating scale) at 12.2 g/a measured after 3 weeks post compound treatment under green house conditions; type: functional
Cyperus serotinus [14] = test: Herbicidal activity against Cyperus serotinus assessed as phytotoxic activity ratings (0- no effect to 5-complete killing rating scale) at 3.1 g/a measured after 3 weeks post compound treatment under green house conditions; type: functional
Echinochloa oryzicola [15] = test: Herbicidal activity against Echinochloa oryzicola assessed as phytotoxic activity ratings (0- no effect to 5-complete killing rating scale) at 6.2 g/a measured after 3 weeks post compound treatment under green house conditions; type: functional
Cyperus difformis [16] = test: Herbicidal activity against Cyperus difformis assessed as phytotoxic activity ratings (0- no effect to 5-complete killing rating scale) at 12.2 g/a measured after 3 weeks post compound treatment under green house conditions; type: functional
[17] = tested on: Schoenoplectiella juncoides; test: Herbicidal activity against Schoenoplectiella juncoides var. Hotarui Ohwi assessed as phytotoxic activity ratings (0- no effect to 5-complete killing rating scale) at 12.2 g/a measured after 3 weeks post compound treatment under green house conditions; type: functional
Echinochloa oryzicola [18] = test: Herbicidal activity against Echinochloa oryzicola assessed as phytotoxic activity ratings (0- no effect to 5-complete killing rating scale) at 25 g/a measured after 3 weeks post compound treatment under green house conditions; type: functional
Cyperus difformis [19] = test: Herbicidal activity against Cyperus difformis assessed as phytotoxic activity ratings (0- no effect to 5-complete killing rating scale) at 50 g/a measured after 3 weeks post compound treatment under green house conditions; type: functional
Cyperus serotinus [20] = test: Herbicidal activity against Cyperus serotinus assessed as phytotoxic activity ratings (0- no effect to 5-complete killing rating scale) at 50 g/a measured after 3 weeks post compound treatment under green house conditions; type: functional
Oryza sativa [21] = test: Phytotoxicity against directly seeded Oryza sativa (rice) seedlings assessed as phytotoxic activity ratings (0- no effect to 5-complete killing rating scale) at 12.2 g/a measured after 3 weeks post compound treatment under green house conditions; type: organism-based; details: in vivo, 504 h
[22] = tested on: Schoenoplectiella juncoides; test: Herbicidal activity against Schoenoplectiella juncoides var. Hotarui Ohwi assessed as phytotoxic activity ratings (0- no effect to 5-complete killing rating scale) at 6.2 g/a measured after 3 weeks post compound treatment under green house conditions; type: functional
Oryza sativa [23] = test: Phytotoxicity against directly seeded Oryza sativa (rice) seedlings assessed as phytotoxic activity ratings (0- no effect to 5-complete killing rating scale) at 6.2 g/a measured after 3 weeks post compound treatment under green house conditions; type: organism-based; details: in vivo, 504 h

| SMILES | Activity (Cyperus serotinus [1]) | Activity (Cyperus difformis [2]) | Activity (Oryza sativa [3]) | Activity (Echinochloa oryzicola [5]) | Activity (Oryza sativa [6]) | Activity [12] | also measured |
| --- | --- | --- | --- | --- | --- | --- | --- |
| C[C@@H](NC(=O)Nc1cccc(C(F)(F)F)c1)c1ccccc1 | 0% | 40% | 0% | 10% | 10% | – | Activity [4]: 80% |
| Cc1ccc(NC(=O)NC(C)(C)c2ccccc2)cc1 [DAIMURON] | – | – | 0% | – | 10% | – | Activity (Echinochloa oryzicola [7]): 80%; Activity [8]: 80%; Activity (Cyperus difformis [9]): 80% |
| COc1cccc(NC(=O)N[C@H](C)c2ccccc2)c1 | 10% | 40% | 0% | 10% | 10% | – | Activity [4]: 80%; Activity (Cyperus serotinus [10]): 80% |
| CC(C)c1cccc(NC(=O)N[C@H](C)c2ccccc2)c1 | – | – | 0% | 0% | 0% | 40% | Activity (Cyperus difformis [11]): 80%; Activity (Cyperus serotinus [13]): 80% |
| CCc1ccccc1NC(=O)N[C@H](C)c1ccccc1 | – | – | 0% | 0% | 0% | 10% | Activity (Cyperus serotinus [14]): 80%; Activity (Cyperus difformis [11]): 80% |
| C[C@H](NC(=O)Nc1ccccc1C(C)(C)C)c1ccccc1 | 0% | 40% | 0% | 0% | 0% | 10% | – |
| Cc1ccc(NC(=O)N[C@H](C)c2ccccc2)cc1 | 40% | – | 0% | 10% | 0% | – | Activity [4]: 80%; Activity (Cyperus difformis [11]): 80% |
| CCCc1ccc(NC(=O)N[C@H](C)c2ccccc2)cc1 | 0% | 40% | 0% | – | 10% | 40% | Activity (Echinochloa oryzicola [15]): 80% |
| C[C@@H](NC(=O)Nc1ccccc1F)c1ccccc1 | 40% | 40% | 0% | 10% | 10% | 10% | – |
| Cc1cc(F)ccc1NC(=O)N[C@@H](C)c1ccccc1 | 40% | 10% | 0% | 0% | 0% | 40% | – |
| C[C@@H](NC(=O)Nc1ccccc1C(F)(F)F)c1ccccc1 | – | – | 0% | 40% | 10% | – | Activity (Cyperus difformis [16]): 80%; Activity (Cyperus serotinus [14]): 80%; Activity [17]: 80% |
| C[C@@H](NC(=O)Nc1ccccc1)c1ccccc1 | 80% | 40% | 0% | 40% | 0% | 10% | – |
| C[C@H](NC(=O)Nc1cc(F)ccc1F)c1ccccc1 | – | 0% | 0% | – | 10% | 0% | Activity (Echinochloa oryzicola [18]): 80%; Activity (Cyperus serotinus [10]): inactive |
| Cc1ccccc1NC(=O)N[C@@H](C)c1ccccc1 | 0% | 0% | 0% | 0% | 0% | 0% | – |
| C[C@H](NC(=O)Nc1cccc(C(F)(F)F)c1)c1ccccc1 | 0% | 10% | 0% | 10% | 0% | 0% | – |
| Cc1cccc(NC(=O)N[C@H](C)c2ccccc2)c1 | 80% | 80% | 0% | 40% | 10% | 80% | – |
| Cc1cc(F)ccc1NC(=O)N[C@H](C)c1ccccc1 | 0% | 0% | 0% | 0% | 0% | 0% | – |
| C[C@H](NC(=O)Nc1cccc(F)c1F)c1ccccc1 | – | 0% | 0% | – | 10% | 0% | Activity (Echinochloa oryzicola [18]): 80%; Activity (Cyperus serotinus [10]): inactive |
| Cc1cccc(NC(=O)N[C@@H](C)c2ccccc2)c1 | 0% | 0% | 0% | 10% | 10% | 0% | – |
| CC(C)c1cccc(NC(=O)N[C@@H](C)c2ccccc2)c1 | 10% | – | 0% | 0% | 0% | – | Activity (Cyperus serotinus [10]): 80%; Activity (Cyperus difformis [19]): 80% |
| Cc1ccccc1NC(=O)N[C@H](C)c1ccccc1 | – | 10% | 0% | 0% | 0% | – | Activity (Cyperus serotinus [20]): 80% |
| C[C@H](NC(=O)Nc1c(F)cccc1F)c1ccccc1 | 0% | 0% | 0% | 0% | 0% | 0% | – |
| CCc1cccc(NC(=O)N[C@H](C)c2ccccc2)c1 | 40% | – | 0% | 40% | 0% | 40% | Activity (Cyperus difformis [16]): 80% |
| CC(C)c1ccccc1NC(=O)N[C@H](C)c1ccccc1 | – | – | 0% | – | – | – | Activity (Cyperus serotinus [14]): 80%; Activity (Oryza sativa [21]): 80%; Activity [22]: 80%; Activity (Cyperus difformis [9]): 80%; Activity (Echinochloa oryzicola [15]): 80% |
| CCc1cccc(NC(=O)N[C@@H](C)c2ccccc2)c1 | 0% | 40% | 0% | 0% | 0% | 40% | – |
| Cc1ccc(NC(=O)N[C@@H](C)c2ccccc2)cc1 | 0% | 0% | 0% | 40% | 0% | 0% | – |
| C[C@H](NC(=O)Nc1ccccc1F)c1ccccc1 | 0% | 10% | 0% | – | 40% | 0% | Activity (Echinochloa oryzicola [15]): 80% |
| C[C@@H](NC(=O)Nc1ccccc1C(C)(C)C)c1ccccc1 | – | – | 0% | – | – | – | Activity (Cyperus serotinus [14]): 80%; Activity (Oryza sativa [23]): 80%; Activity [22]: 80%; Activity (Cyperus difformis [9]): 80%; Activity (Echinochloa oryzicola [15]): 80% |
| C[C@H](NC(=O)Nc1ccccc1)c1ccccc1 | 0% | 0% | 0% | – | 10% | 0% | Activity (Echinochloa oryzicola [18]): 80% |
| CC(C)c1ccc(NC(=O)N[C@@H](C)c2ccccc2)cc1 | 0% | 0% | 0% | 0% | 0% | 0% | Activity (Cyperus serotinus [10]): inactive |
